Values of other authors, collected in patent US5240711A, “Transdermal therapeutic system comprising as active component buprenorphine” (LTS Lohmann Therapie-Systeme GmbH & Co. KG, priority 1989, dated 1993).

For `CO[C@]12CC[C@@]3(C[C@@H]1[C@](C)(O)C(C)(C)C)[C@H]1Cc4ccc(O)c5c4[C@@]3(CCN1CC1CC1)[C@H]2O5` [buprenorphine, 17-(cyclopropylmethyl)-α-(1,1-dimethylethyl)-4,5-epoxy-18,19-dihydro-3-hydroxy-6-methoxy-α-methyl-6,14-ethenomorphinane-7-methanol], the “solubility in conventional organic solvents and water” value is given as “very slight solubility” and the “penetration through the human skin” value (human skin) is given as “only badly penetrates through the human skin”.
